Reference: ChEMBL document CHEMBL4417633, “Inhibitory polypeptides specific to WNT inhibitors” (2017)
Where a SMILES comes first, the peptide text is derived from it.

Assays:
[1] = biological target: T1, Dickkopf WNT-signaling pathway inhibitor 1 (Rattus norvegicus, UniProt A6I0Z0); assay: Inhibition of biotin-labeled rat recombinant DKK1 assessed as reduction in DKK1 interaction with LRP-6/Fc incubated overnight by chemiluminescence based Alpha-screen assay
T1 sequence (A6I0Z0 whole entry): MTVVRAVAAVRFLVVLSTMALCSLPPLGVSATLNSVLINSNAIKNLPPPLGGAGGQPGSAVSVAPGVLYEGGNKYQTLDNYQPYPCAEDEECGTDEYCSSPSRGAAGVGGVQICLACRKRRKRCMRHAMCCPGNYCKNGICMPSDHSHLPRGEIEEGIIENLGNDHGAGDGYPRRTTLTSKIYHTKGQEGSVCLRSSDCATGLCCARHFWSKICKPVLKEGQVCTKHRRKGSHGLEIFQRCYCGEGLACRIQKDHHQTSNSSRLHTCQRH

[2] = biological target: T2, Dickkopf-related protein 1 (Homo sapiens, UniProt O94907); assay: Inhibition of biotin-labeled human recombinant DKK1 assessed as reduction in DKK1 interaction with LRP-6/Fc incubated overnight by chemiluminescence based Alpha-screen assay
T2 sequence (O94907 whole entry): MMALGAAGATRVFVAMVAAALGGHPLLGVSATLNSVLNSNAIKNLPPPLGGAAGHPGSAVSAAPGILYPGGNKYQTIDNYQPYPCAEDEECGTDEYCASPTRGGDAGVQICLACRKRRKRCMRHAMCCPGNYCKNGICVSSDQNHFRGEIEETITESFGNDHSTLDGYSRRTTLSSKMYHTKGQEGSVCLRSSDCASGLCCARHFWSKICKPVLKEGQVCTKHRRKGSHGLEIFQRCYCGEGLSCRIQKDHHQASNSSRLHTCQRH

Row | SMILES | IC50 [1] [nM] | IC50 [2] [nM]
1 | CSCC[C@H](NC(=O)[C@@H]1CCCN1C(=O)[C@H](Cc1ccc(O)cc1)NC(=O)[C@H](CS)NC(=O)[C@H](Cc1cnc[nH]1)NC(=O)[C@H](CC(N)=O)NC(=O)[C@H](Cc1cnc[nH]1)NC(=O)[C@H](CCCCN)NC(=O)[C@H](CCCNC(=N)N)NC(=O)[C@H](CS)NC(=O)[C@H](CCCCN)NC(=O)[C@H](Cc1ccccc1)NC(=O)[C@H](Cc1ccc(O)cc1)NC(=O)[C@H](CO)NC(=O)[C@H](C)NC(=O)[C@@H]1CCCN1C(=O)[C@@H](N)CS)C(=O)N[C@@H](CCC(=O)O)C(=O)N[C@@H](Cc1c[nH]c2ccccc12)C(=O)N[C@@H](CCCNC(=N)N)C(=O)N[C@@H](CS)C(=O)N[C@@H](CC(=O)O)C(=O)NCC(=O)N[C@@H](Cc1ccccc1)C(=O)N[C@@H](CCC(N)=O)C(=O)N[C@@H](CC(=O)O)C(=O)N[C@@H](CS)C(=O)N[C@@H](CCC(=O)O)C(=O)N[C@@H](CC(=O)O)C(=O)NCC(=O)N[C@@H](CO)C(=O)N[C@@H](CC(=O)O)C(=O)N[C@@H](CCC(=O)O)C(=O)N[C@@H](CCC(N)=O)C(=O)N[C@@H](C)C(=O)N[C@@H](CS)C(=O)N1CCC[C@H]1C(=O)N[C@@H](Cc1ccc(O)cc1)C(=O)N[C@@H](CCCNC(=N)N)C(=O)N[C@H](C(=O)O)[C@@H](C)O (H-CPASYFKCRKHNHCYPMEWRCDGFQDCEDGSDEQACPYRT-OH) | ≤ 1 | ≤ 1
2 | CSCC[C@H](NC(=O)[C@@H]1CCCN1C(=O)[C@H](Cc1ccc(O)cc1)NC(=O)[C@H](CS)NC(=O)[C@H](Cc1cnc[nH]1)NC(=O)[C@H](CC(N)=O)NC(=O)[C@H](Cc1ccc(O)cc1)NC(=O)[C@H](CC(N)=O)NC(=O)[C@H](CCCNC(=N)N)NC(=O)[C@H](CS)NC(=O)[C@H](CCCCN)NC(=O)[C@H](Cc1ccccc1)NC(=O)[C@H](Cc1ccc(O)cc1)NC(=O)[C@H](CO)NC(=O)[C@H](C)NC(=O)[C@@H]1CCCN1C(=O)[C@@H](N)CS)C(=O)N[C@@H](CCC(=O)O)C(=O)N[C@@H](Cc1c[nH]c2ccccc12)C(=O)N[C@@H](CCCNC(=N)N)C(=O)N[C@@H](CS)C(=O)N[C@@H](CC(=O)O)C(=O)NCC(=O)N[C@@H](Cc1ccccc1)C(=O)N[C@@H](CCCNC(=N)N)C(=O)N[C@@H](CC(=O)O)C(=O)N[C@@H](CS)C(=O)N[C@@H](CCC(=O)O)C(=O)N[C@@H](CC(=O)O)C(=O)NCC(=O)N[C@@H](CO)C(=O)N[C@@H](CC(=O)O)C(=O)N[C@@H](CCC(=O)O)C(=O)N[C@@H](CCC(=O)O)C(=O)NCC(=O)N[C@@H](CS)C(=O)N1CCC[C@H]1C(=O)N[C@@H](Cc1ccc(O)cc1)C(=O)N[C@@H](CCCNC(=N)N)C(=O)N[C@H](C(=O)O)[C@@H](C)O (H-CPASYFKCRNYNHCYPMEWRCDGFRDCEDGSDEEGCPYRT-OH) | ≤ 1 | ≤ 1
3 | CC[C@H](C)[C@H](NC(=O)[C@H](CC(N)=O)NC(=O)CNC(=O)[C@H](CS)NC(=O)[C@H](CCC(N)=O)NC(=O)[C@H](Cc1ccccc1)NC(=O)[C@H](Cc1ccc(O)cc1)NC(=O)[C@H](CO)NC(=O)[C@H](C)NC(=O)[C@@H]1CCCN1C(=O)[C@@H](N)CS)C(=O)N[C@@H](CC(N)=O)C(=O)N[C@@H](Cc1cnc[nH]1)C(=O)N[C@@H](CS)C(=O)N[C@@H](Cc1ccc(O)cc1)C(=O)N1CCC[C@H]1C(=O)N[C@H](C(=O)N[C@@H](CCC(=O)O)C(=O)N[C@@H](Cc1c[nH]c2ccccc12)C(=O)N[C@@H](CCCNC(=N)N)C(=O)N[C@@H](CS)C(=O)N[C@@H](CC(=O)O)C(=O)NCC(=O)N[C@@H](Cc1ccccc1)C(=O)N[C@@H](CCC(N)=O)C(=O)N[C@@H](CC(=O)O)C(=O)N[C@@H](CS)C(=O)N[C@@H](CC(=O)O)C(=O)N[C@@H](CC(=O)O)C(=O)NCC(=O)N[C@@H](CO)C(=O)N[C@@H](CC(=O)O)C(=O)N[C@@H](CCC(=O)O)C(=O)N[C@@H](Cc1ccc(O)cc1)C(=O)N[C@H](C(=O)N[C@@H](CS)C(=O)N1CCC[C@H]1C(=O)N[C@@H](Cc1ccc(O)cc1)C(=O)N[C@@H](CCCNC(=N)N)C(=O)N[C@H](C(=O)O)[C@@H](C)O)C(C)C)C(C)C (H-CPASYFQCGNINHCYPVEWRCDGFQDCDDGSDEYVCPYRT-OH) | ≤ 1 | ≤ 1
4 | CSCC[C@H](NC(=O)[C@@H]1CCCN1C(=O)[C@H](Cc1ccc(O)cc1)NC(=O)[C@H](CS)NC(=O)[C@H](Cc1cnc[nH]1)NC(=O)[C@H](CC(N)=O)NC(=O)[C@H](CC(C)C)NC(=O)[C@H](CC(N)=O)NC(=O)CNC(=O)[C@H](CS)NC(=O)[C@H](CCC(N)=O)NC(=O)[C@H](Cc1ccccc1)NC(=O)[C@H](Cc1ccc(O)cc1)NC(=O)[C@H](CO)NC(=O)[C@H](C)NC(=O)[C@@H]1CCCN1C(=O)[C@@H](N)CS)C(=O)N[C@@H](CCC(=O)O)C(=O)N[C@@H](Cc1c[nH]c2ccccc12)C(=O)N[C@@H](CCCNC(=N)N)C(=O)N[C@@H](CS)C(=O)N[C@@H](CC(=O)O)C(=O)NCC(=O)N[C@@H](Cc1ccccc1)C(=O)N[C@@H](CCC(N)=O)C(=O)N[C@@H](CC(=O)O)C(=O)N[C@@H](CS)C(=O)N[C@H](C(=O)N[C@@H](CC(=O)O)C(=O)NCC(=O)N[C@@H](CO)C(=O)N[C@@H](CC(=O)O)C(=O)N[C@@H](CCC(=O)O)C(=O)N[C@@H](CCCCN)C(=O)NCC(=O)N[C@@H](CS)C(=O)N1CCC[C@H]1C(=O)N[C@@H](Cc1ccc(O)cc1)C(=O)N[C@@H](CCCNC(=N)N)C(=O)N[C@H](C(=O)O)[C@@H](C)O)C(C)C (H-CPASYFQCGNLNHCYPMEWRCDGFQDCVDGSDEKGCPYRT-OH) | ≤ 1 | ≤ 1
5 | CSCC[C@H](NC(=O)[C@@H]1CCCN1C(=O)[C@H](Cc1ccc(O)cc1)NC(=O)[C@H](CS)NC(=O)[C@H](Cc1cnc[nH]1)NC(=O)[C@H](CCCCN)NC(=O)[C@H](Cc1ccc(O)cc1)NC(=O)[C@H](CC(N)=O)NC(=O)CNC(=O)[C@H](CS)NC(=O)[C@H](CCC(N)=O)NC(=O)[C@H](Cc1ccccc1)NC(=O)[C@H](Cc1ccc(O)cc1)NC(=O)[C@H](CO)NC(=O)[C@H](C)NC(=O)[C@@H]1CCCN1C(=O)[C@@H](N)CS)C(=O)N[C@@H](CCC(=O)O)C(=O)N[C@@H](Cc1c[nH]c2ccccc12)C(=O)N[C@@H](Cc1cnc[nH]1)C(=O)N[C@@H](CS)C(=O)N[C@@H](CC(=O)O)C(=O)NCC(=O)N[C@@H](Cc1ccccc1)C(=O)N[C@@H](CCC(N)=O)C(=O)N[C@@H](CC(=O)O)C(=O)N[C@@H](CS)C(=O)N[C@H](C(=O)N[C@@H](CC(=O)O)C(=O)NCC(=O)N[C@@H](CO)C(=O)N[C@@H](CC(=O)O)C(=O)N[C@@H](CCC(=O)O)C(=O)N[C@@H](CCCCN)C(=O)N[C@@H](C)C(=O)N[C@@H](CS)C(=O)N1CCC[C@H]1C(=O)N[C@@H](Cc1ccc(O)cc1)C(=O)N[C@@H](CCCNC(=N)N)C(=O)N[C@H](C(=O)O)[C@@H](C)O)C(C)C (H-CPASYFQCGNYKHCYPMEWHCDGFQDCVDGSDEKACPYRT-OH) | ≤ 1 | ≤ 1
6 | CSCC[C@H](NC(=O)[C@@H]1CCCN1C(=O)[C@H](Cc1ccc(O)cc1)NC(=O)[C@H](CS)NC(=O)[C@H](Cc1cnc[nH]1)NC(=O)[C@H](CC(N)=O)NC(=O)[C@H](Cc1ccc(O)cc1)NC(=O)[C@H](CC(N)=O)NC(=O)CNC(=O)[C@H](CS)NC(=O)[C@H](CCC(N)=O)NC(=O)[C@H](Cc1ccccc1)NC(=O)[C@H](Cc1ccc(O)cc1)NC(=O)[C@H](CO)NC(=O)[C@H](C)NC(=O)[C@@H]1CCCN1C(=O)[C@@H](N)CS)C(=O)N[C@@H](CCC(=O)O)C(=O)N[C@@H](Cc1c[nH]c2ccccc12)C(=O)N[C@@H](CCCNC(=N)N)C(=O)N[C@@H](CS)C(=O)N[C@@H](CC(=O)O)C(=O)NCC(=O)N[C@@H](Cc1ccccc1)C(=O)N[C@@H](CC(C)C)C(=O)N[C@@H](CC(=O)O)C(=O)N[C@@H](CS)C(=O)N[C@H](C(=O)N[C@@H](CC(=O)O)C(=O)NCC(=O)N[C@@H](CO)C(=O)N[C@@H](CC(=O)O)C(=O)N[C@@H](CCC(=O)O)C(=O)N[C@@H](CCCCN)C(=O)NCC(=O)N[C@@H](CS)C(=O)N1CCC[C@H]1C(=O)N[C@@H](Cc1ccc(O)cc1)C(=O)N[C@@H](CCCNC(=N)N)C(=O)N[C@H](C(=O)O)[C@@H](C)O)C(C)C (H-CPASYFQCGNYNHCYPMEWRCDGFLDCVDGSDEKGCPYRT-OH) | ≤ 1 | ≤ 1
7 | CSCC[C@H](NC(=O)[C@@H]1CCCN1C(=O)[C@H](Cc1ccc(O)cc1)NC(=O)[C@H](CS)NC(=O)[C@H](Cc1cnc[nH]1)NC(=O)[C@@H]1CCCN1C(=O)[C@H](Cc1cnc[nH]1)NC(=O)[C@H](CO)NC(=O)CNC(=O)[C@H](CS)NC(=O)[C@H](CCC(N)=O)NC(=O)[C@H](Cc1ccccc1)NC(=O)[C@H](Cc1ccc(O)cc1)NC(=O)[C@H](CO)NC(=O)[C@H](C)NC(=O)[C@@H]1CCCN1C(=O)[C@@H](N)CS)C(=O)N[C@@H](CCC(=O)O)C(=O)N[C@@H](Cc1c[nH]c2ccccc12)C(=O)N[C@@H](CCCNC(=N)N)C(=O)N[C@@H](CS)C(=O)N[C@@H](CC(=O)O)C(=O)NCC(=O)N[C@@H](Cc1ccccc1)C(=O)N[C@@H](CCC(N)=O)C(=O)N[C@@H](CC(=O)O)C(=O)N[C@@H](CS)C(=O)N[C@@H](CCC(=O)O)C(=O)N[C@@H](CC(=O)O)C(=O)NCC(=O)N[C@@H](CO)C(=O)N[C@@H](CC(=O)O)C(=O)N[C@@H](CCC(=O)O)C(=O)N[C@@H](CC(C)C)C(=O)NCC(=O)N[C@@H](CS)C(=O)N1CCC[C@H]1C(=O)N[C@@H](Cc1ccc(O)cc1)C(=O)N[C@@H](CCCNC(=N)N)C(=O)N[C@H](C(=O)O)[C@@H](C)O (H-CPASYFQCGSHPHCYPMEWRCDGFQDCEDGSDELGCPYRT-OH) | ≤ 1 | ≤ 1
